Source: patent US9212151B2, “Heterocyclic compounds useful for kinase inhibition” (Amitech Therapeutic Solutions, Inc., priority 2010, dated 2015)

Assay: MTT cell viability assay, compounds at 5, 1 and 0.2 μM, 48 hours
Format: cell-based
Conditions: human, A549 tumor cells
Procedure, shortened: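 A549 cells were seeded at 2500/well in DMEM + 10% FBS, grown overnight, then exposed to compound for 48 h. Viability was read by MTT (5 mg/ml, 4 h), with formazan dissolved in DMSO and absorbance measured at 560/570 nm to give survival rate.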

| Compound | viability at 48 h, 0.2 µM (0.2 μM) | viability at 48 h, 1 µM (1 μM) | viability at 48 h, 5 µM (5 μM) | viability at 48 h, 0.2 µM (0.2 μM compound) | viability at 48 h, 1 µM (1 μM compound) | viability at 48 h, 5 µM (5 μM compound) |
| --- | --- | --- | --- | --- | --- | --- |
| CSc1nc(N)cc(Oc2ccc(-c3nnc(Nc4ccc(F)c(C(F)(F)F)c4)[nH]3)cc2)n1 [Compound 105] | > 70% | > 70% | < 50% | – | – | – |
| Cc1ccc2nccc(Oc3ccc(-c4nnc(Nc5cccc(C(F)(F)F)c5)[nH]4)cc3)c2c1 [Compound 162] | > 70% | > 70% | > 70% | – | – | – |
| COc1ccc2c(Oc3cc(-c4nnc(Nc5cccc(C(F)(F)F)c5)[nH]4)ccc3C)ccnc2c1 [Compound 197] | – | – | – | > 70% | > 70% | > 70% |
| FC(F)(F)c1cccc(Nc2nnc(-c3cccc(Oc4cncnc4)c3)[nH]2)c1 [Compound 101] | > 70% | > 70% | > 70% | – | – | – |
| FC(F)(F)c1cccc(Nc2nnc(-c3ccc(Oc4ccnc(Cl)c4)cc3)o2)c1 [Compound 30] | > 70% | > 70% | 50 to 70% | – | – | – |
| FC(F)(F)c1cccc(Nc2nnc(-c3ccc(Oc4nccc(Cl)n4)cc3)o2)c1 [Compound 26] | > 70% | > 70% | > 70% | – | – | – |
| CSc1nc(Oc2cccc(-c3nnc(Nc4cccc(C(F)(F)F)c4)[nH]3)c2)c2cc[nH]c2n1 [Compound 56] | > 70% | > 70% | > 70% | – | – | – |
| NS(=O)(=O)c1cnccc1Oc1cccc(-c2nnc(Nc3cccc(C(F)(F)F)c3)[nH]2)c1 [Compound 19] | > 70% | > 70% | > 70% | – | – | – |
| CSc1nc(N)cc(Oc2ccc(-c3nnc(Nc4ccc5c(c4)-c4ccccc4C5)[nH]3)cc2)n1 [Compound 136] | > 70% | 50 to 70% | < 50% | – | – | – |
| FC(F)(F)c1cccc(Nc2nnc(-c3ccc(Oc4ccnc5cc(OCc6ccccc6)ccc45)cc3)[nH]2)c1 [Compound 187] | > 70% | > 70% | > 70% | – | – | – |
| CSc1nc(N)cc(Oc2ccc(-c3nnc(Nc4ccc(Cl)c(C(F)(F)F)c4)[nH]3)cc2)n1 [Compound 66] | > 70% | > 70% | < 50% | – | – | – |
| FC(F)(F)c1cccc(Nc2nnc(-c3ccc(Oc4ccnc5cc(C(F)(F)F)ccc45)cc3)[nH]2)c1 [Compound 148] | > 70% | > 70% | > 70% | – | – | – |
| COc1cc(Oc2ccc(-c3nnc(Nc4cccc(C(F)(F)F)c4)[nH]3)cc2)ccn1 [Compound 73] | > 70% | > 70% | < 50% | – | – | – |
| Nc1cc(Oc2ccc(-c3nnc(Nc4cccc(C(F)(F)F)c4)[nH]3)cc2)nc(SCC(=O)O)n1 [Compound 116] | > 70% | > 70% | > 70% | – | – | – |
| FC(F)(F)Oc1ccc2c(Oc3ccc(-c4nnc(Nc5cccc(C(F)(F)F)c5)[nH]4)cc3)ccnc2c1 [Compound 163] | > 70% | > 70% | > 70% | – | – | – |
| COc1cc(Oc2cccc(-c3nnc(Nc4cccc(C(F)(F)F)c4)[nH]3)c2)ccn1 [Compound 90] | > 70% | > 70% | > 70% | – | – | – |
| FC(F)(F)c1cccc(Nc2nnc(-c3ccc(Oc4ncnc5[nH]ccc45)cc3)s2)c1 [Compound 45] | > 70% | 50 to 70% | < 50% | – | – | – |
| Nc1cc(Oc2ccc(-c3nnc(Nc4cccc(C(F)(F)F)c4)[nH]3)cc2)nc(NCCO)n1 [Compound 61] | > 70% | > 70% | > 70% | – | – | – |
| CSc1nc(N)cc(Oc2ccc(-c3nnc(NC4CCCCC4)[nH]3)cc2)n1 [Compound 155] | > 70% | > 70% | < 50% | – | – | – |
| FC(F)(F)c1cccc(Nc2nnc(-c3cccc(Oc4ccncc4)c3)o2)c1 [Compound 37] | > 70% | > 70% | > 70% | – | – | – |

| Compound | viability at 48 h, 0.2 µM (0.2 μM) | viability at 48 h, 1 µM (1 μM) | viability at 48 h, 5 µM (5 μM) | viability at 48 h, 0.2 µM (0.2 μM compound) | viability at 48 h, 1 µM (1 μM compound) | viability at 48 h, 5 µM (5 μM compound) |
| --- | --- | --- | --- | --- | --- | --- |
| [2H]C([2H])([2H])Oc1cc(Oc2ccc(-c3nnc(Nc4cccc(C(F)(F)F)c4)[nH]3)cc2)nc(N)n1 [Compound 142] | > 70% | > 70% | > 70% | – | – | – |
| COCCOc1cc(Oc2cccc(-c3nnc(Nc4cccc(C(F)(F)F)c4)[nH]3)c2)nc(N)n1 [Compound 58] | > 70% | > 70% | > 70% | – | – | – |
| CNc1cc(Oc2ccc(-c3nnc(Nc4cccc(C(F)(F)F)c4)[nH]3)cc2)nc(SC)n1 [Compound 118] | > 70% | > 70% | > 70% | – | – | – |
| N#Cc1ccc2c(Oc3ccc(-c4nnc(Nc5cccc(C(F)(F)F)c5)[nH]4)cc3)ccnc2c1 [Compound 189] | > 70% | > 70% | > 70% | – | – | – |
| Cc1nccc(Oc2ccc(-c3nnc(Nc4cccc(C(F)(F)F)c4)[nH]3)cc2)n1 [Compound 51] | > 70% | 50 to 70% | < 50% | – | – | – |
| COc1cc(Oc2ccc(-c3nnc(Nc4cccc(C(F)(F)F)c4)[nH]3)cc2)ncn1 [Compound 76] | > 70% | > 70% | 50 to 70% | – | – | – |
| FC(F)(F)c1cccc(-c2nnc(Nc3ccc(Oc4cccnc4)cc3)[nH]2)c1 [Compound 174] | > 70% | > 70% | > 70% | – | – | – |
| CCc1nc(N)cc(Oc2ccc(-c3nnc(Nc4cccc(C(F)(F)F)c4)[nH]3)cc2)n1 [Compound 81] | > 70% | 50 to 70% | < 50% | – | – | – |
| FC(F)(F)c1cccc(Nc2nnc(-c3cccc(Oc4ccncc4)c3)[nH]2)c1 [Compound 17] | > 70% | 50 to 70% | 50 to 70% | – | – | – |
| CSc1nc(N)cc(Oc2cccc(-c3nnc(Nc4cccc(C(F)(F)F)c4)o3)c2)n1 [Compound 36] | > 70% | > 70% | > 70% | – | – | – |
| CCCNc1cc(Oc2ccc(-c3nnc(Nc4cccc(C(F)(F)F)c4)[nH]3)cc2)nc(SC)n1 [Compound 144] | > 70% | > 70% | 50 to 70% | – | – | – |
| CSc1nc(N)cc(Oc2ccc(-c3cnc(Nc4cccc(C(F)(F)F)c4)[nH]3)cc2)n1 [Compound 199] | – | – | – | < 50% | < 50% | < 50% |
| C[S+]([O-])c1nc(N)cc(Oc2ccc(-c3nnc(Nc4cccc(C(F)(F)F)c4)[nH]3)cc2)n1 (stereo not drawn) [Compound 63] | > 70% | > 70% | 50 to 70% | – | – | – |
| CSc1nc(N)cc(Oc2ccc(-c3nnc(Nc4cccc(Cl)c4)[nH]3)cc2)n1 [Compound 133] | > 70% | < 50% | < 50% | – | – | – |
| COc1nccc(Oc2ccc(-c3nnc(Nc4cccc(C(F)(F)F)c4)[nH]3)cc2)n1 [Compound 71] | > 70% | > 70% | 50 to 70% | – | – | – |
| FC(F)(F)c1cccc(Nc2nnc(-c3cccc(Oc4ncnc5[nH]ccc45)c3)[nH]2)c1 [Compound 21] | > 70% | > 70% | > 70% | – | – | – |
| CSc1nc(N)cc(Oc2ccc(-c3nnc(Nc4cccc(C(C)(C)C#N)c4)[nH]3)cc2)n1 [Compound 131] | > 70% | > 70% | < 50% | – | – | – |
| CSc1nc(N)cc(Oc2ccc(-c3nnc(Nc4cccc(C(=O)O)c4)[nH]3)cc2)n1 [Compound 153] | > 70% | > 70% | > 70% | – | – | – |
| CC(C)(C)Sc1nc(N)cc(Oc2cccc(-c3nnc(Nc4cccc(C(F)(F)F)c4)[nH]3)c2)n1 [Compound 98] | > 70% | > 70% | > 70% | – | – | – |
| CN(C)c1cc(Oc2ccc(-c3nnc(Nc4cccc(C(F)(F)F)c4)[nH]3)cc2)c2ccccc2n1 [Compound 196] | – | – | – | > 70% | > 70% | 50 to 70% |
